Results from patent US5874597A, “Certain aminosterol compounds and pharmaceutical compositions including these compounds” (priority 1995, dated 1999).
Entries after “also recorded” stand apart in the source; their conditions may differ.

Columns and labels:
[1] = tested on: vitelline capillaries of chick embryo; test: chick embryo vitelline capillary regression assay; format: in vivo; set-up: key to vitelline capillary regression: +: Vascular reactivity; 0: No vascular reactivity; +/-: Equivocal reactivity; conditions: for Chick embryo diss. assay, Minimum Effective Concentration: Table II; for effect on vitelline capillaries / chick embryo: in vivo
Experimental: Using the chick embryo vitelline capillaries assay, compounds were tested for their ability to induce capillary regression. Each compound was applied in 0.1 ml of 15% Ficol 400 and PBS onto the embryo, and vascular regression was assessed after 60 minutes.
The 3-day chick embryo consists of an embryonic disc from which numerous vessels emerge and return, forming a "figure 8"-shaped structure--the embryo in the center with vascular loops extending outward over both poles. […] Following a lag period of around 15 minutes, the constriction of continuity between capillary and secondary vessels, generally on the "venous" side, was observed. Continued pulsatile blood flow progressed, resulting in a "swelling" of the blind tube, followed by a pinching off of the remaining connection and formation of an enclosed vascular sac resembling a "blood island." This process progressed until only the largest vessels remained intact.

[2] = tested on: Xenopus tadpole (stage 59-60); test: Xenopus tadpole assay; format: in vivo, Xenopus laevis; conditions: for pharmacologic similarity in tadpole assay: in vivo
[3] = tested on: NHE3; conditions: cited from earlier work
[4] = tested on: human melanoma; test: effect on growth of human melanoma (time course, apoptosis); format: cell-based

COC(=O)CC[C@@H](C)[C@H]1CC[C@H]2[C@@H]3[C@H](O)C[C@@H]4C[C@@H](NCCCNCCCCNCCCN)CC[C@]4(C)[C@H]3CC[C@]12C [Compound 411]
vitelline capillary regression ([1]; 0.1 μg applied, 60 min): 0

C[C@H](CCC(=O)O)[C@H]1CC[C@H]2[C@@H]3[C@H](O)C[C@@H]4C[C@H](NCCN)CC[C@]4(C)[C@H]3CC[C@]12C [Compound 414]
pharmacologic similarity in tadpole assay [2]: pharmacologic activity similar to Fraction 1

CC(C)CCCC(C)[C@H]1CCC2C3C(CC[C@@]21C)[C@@]1(C)CC[C@H](NCCCNCCCCN)C[C@@H]1C[C@H]3O (stereo partly shown)
Chick embryo diss. assay, Minimum Effective Concentration [1]: 1 to 10 µg

COC(=O)CCC(C)[C@H]1CCC2C3CC[C@H]4C[C@@H](NCCCNCCCCNCCCN)CC[C@]4(C)C3CC[C@@]21C (stereo partly shown)
Chick embryo diss. assay, Minimum Effective Concentration [1]: > 1 µg

C[C@H](CCC(=O)O)[C@H]1CC[C@H]2[C@@H]3[C@H](O)C[C@@H]4C[C@@H](NCCN)CC[C@]4(C)[C@H]3CC[C@]12C [Compound 415]
effect on vitelline capillaries / chick embryo [1]: especially active

COC(=O)CCC(C)[C@H]1CCC2C3C[C@@H](O)[C@H]4C[C@@H](NCCCNCCCCNCCCN)CC[C@]4(C)C3CC[C@@]21C (stereo partly shown)
Chick embryo diss. assay, Minimum Effective Concentration [1]: 1 µg

CC(COS(=O)(=O)O)C(=O)CCC(C)[C@H]1CCC2C3C(CC[C@@]21C)[C@@]1(C)CC[C@H](NCCCNCCCCN)C[C@@H]1C[C@H]3O (stereo partly shown)
Chick embryo diss. assay, Minimum Effective Concentration [1]: > 10 µg

CC(C)CCCC(C)[C@H]1CCC2C3C(CC[C@@]21C)[C@@]1(C)CC[C@@H](NCCCNCCCCN)C[C@@H]1C[C@H]3O (stereo partly shown)
Chick embryo diss. assay, Minimum Effective Concentration [1]: > 10 µg

CC(C)CCCC(C)[C@H]1CCC2C3CC[C@H]4C[C@@H](NCCCNCCCCN)CC[C@]4(C)C3CC[C@@]21C (stereo partly shown)
Chick embryo diss. assay, Minimum Effective Concentration [1]: > 10 µg

N=C(N)NC(=O)c1nc(Cl)c(N)nc1N [Amiloride, amiloride]
effect on NHE3 kinetics (Km, Vmax) [3]: affected only Vmax

COC(=O)CCC(C)[C@H]1CCC2C3C(CC[C@@]21C)[C@@]1(C)CC[C@H](NCCCNCCCCNCCCN)C[C@H]1C[C@H]3O (stereo partly shown)
Chick embryo diss. assay, Minimum Effective Concentration [1]: > 1 µg

CC(CCC(=O)O)[C@H]1CCC2C3C(CC[C@@]21C)[C@@]1(C)CC[C@H](NCCN)C[C@H]1C[C@H]3O (stereo partly shown)
Chick embryo diss. assay, Minimum Effective Concentration [1]: > 1 µg

CC(CCC(=O)O)[C@H]1CCC2C3C(CC[C@@]21C)[C@@]1(C)CC[C@H](NCCCNCCCCNCCCN)C[C@@H]1C[C@H]3O (stereo partly shown)
Chick embryo diss. assay, Minimum Effective Concentration [1]: 1 µg

COC(=O)CCC(C)[C@H]1CCC2C3CC[C@@H]4C[C@H](NCCN)CC[C@]4(C)C3C[C@H](O)[C@@]21C (stereo partly shown)
Chick embryo diss. assay, Minimum Effective Concentration [1]: > 1 µg

CC(COS(=O)(=O)O)C(=O)CC[C@@H](C)[C@H]1CC[C@H]2[C@@H]3[C@H](O)C[C@H]4C[C@@H](NCCCNCCCCN)CC[C@]4(C)[C@H]3CC[C@]12C (single isomer, unassigned) [Compound 1360]
tadpole response ([2]; 10 μg/ml, about 1 hour): Swelling and lysis of certain erythrocytes occurred; also recorded: extensive vasocclusion occurred within 60 minutes throughout the tail | effect on vitelline capillaries / chick embryo [1]: the blood circulating through the embryonic vessels exhibited a brighter red color

CC(CCC(=O)O)[C@H]1CCC2C3CC[C@H]4C[C@H](NCCCNCCCCN)CC[C@]4(C)C3CC[C@@]21C (stereo partly shown)
Chick embryo diss. assay, Minimum Effective Concentration [1]: > 10 µg

COC(=O)CCC(C)[C@H]1CCC2C3CC[C@@H]4C[C@H](NCCCNCCCCNCCCN)CC[C@]4(C)C3CC[C@@]21C (stereo partly shown)
Chick embryo diss. assay, Minimum Effective Concentration [1]: > 1 µg

COC(=O)CCC(C)[C@H]1CCC2C3C(CC[C@@]21C)[C@@]1(C)CC[C@H](NCCN)C[C@H]1C[C@H]3O (stereo partly shown)
Chick embryo diss. assay, Minimum Effective Concentration [1]: > 1 µg

CC(CCC(=O)O)[C@H]1CCC2C3C[C@@H](O)[C@H]4C[C@@H](NCCN)CC[C@]4(C)C3CC[C@@]21C (stereo partly shown)
Chick embryo diss. assay, Minimum Effective Concentration [1]: 1 µg

CC(CCC(=O)O)[C@H]1CCC2C3CC[C@H]4C[C@@H](NCCCNCCCCN)CC[C@]4(C)C3CC[C@@]21C (stereo partly shown)
Chick embryo diss. assay, Minimum Effective Concentration [1]: 0.001 µg

CC(CCC(=O)O)[C@H]1CCC2C3C(CC[C@@]21C)[C@@]1(C)CC[C@H](NCCCNCCCCNCCCN)C[C@H]1C[C@H]3O (stereo partly shown)
Chick embryo diss. assay, Minimum Effective Concentration [1]: > 1 µg

CC(CCC(=O)O)[C@H]1CCC2C3C(CC[C@@]21C)[C@@]1(C)CC[C@@H](NCCN)C[C@H]1C[C@H]3O (stereo partly shown)
Chick embryo diss. assay, Minimum Effective Concentration [1]: > 1 µg

CC(CCC(=O)O)[C@H]1CCC2C3C(CC[C@@]21C)[C@@]1(C)CC[C@@H](NCCCNCCCCNCCCN)C[C@H]1C[C@H]3O (stereo partly shown)
Chick embryo diss. assay, Minimum Effective Concentration [1]: 1 µg

CC(C)CCCC(C)[C@H]1CCC2C3CC[C@H]4C[C@H](NCCCN5CCCCN=C5N)CC[C@]4(C)C3CC[C@@]21C (stereo partly shown)
Chick embryo diss. assay, Minimum Effective Concentration [1]: > 10 µg

COC(=O)CCC(C)[C@H]1CCC2C3C(CC[C@@]21C)[C@@]1(C)CC[C@H](NCCCNCCCCNCCCN)C[C@@H]1C[C@H]3O (stereo partly shown)
Chick embryo diss. assay, Minimum Effective Concentration [1]: 10 µg

CC(CCC(=O)O)[C@H]1CCC2C3C(CC[C@@]21C)[C@@]1(C)CC[C@H](NCCCNCCCCN)C[C@@H]1C[C@H]3O (stereo partly shown)
Chick embryo diss. assay, Minimum Effective Concentration [1]: > 10 µg

CC(C)CCC[C@@H](C)[C@H]1CC[C@H]2[C@@H]3CC[C@H]4C[C@@H](NCCCNCCCCNCCCN)CC[C@]4(C)[C@H]3CC[C@]12C [Compound 353]
mechanism of cell death [4]: apoptotic cell death has been induced | time dependence of effect on growth of melanoma ([4]; FIG. 17A): most pronounced over 48 hours | effect on vitelline capillaries / chick embryo [1]: no effect on the chick embryo capillary bed

COC(=O)CCC(C)[C@H]1CCC2C3C[C@@H](O)[C@H]4C[C@H](NCCN)CC[C@]4(C)C3CC[C@@]21C (stereo partly shown)
Chick embryo diss. assay, Minimum Effective Concentration [1]: > 1 µg

COC(=O)CCC(C)[C@H]1CCC2C3C(CC[C@@]21C)[C@@]1(C)CC[C@@H](NCCN)C[C@H]1C[C@H]3O (stereo partly shown)
Chick embryo diss. assay, Minimum Effective Concentration [1]: 0.01 µg

COC(=O)CCC(C)[C@H]1CCC2C3C[C@@H](O)[C@H]4C[C@@H](NCCN)CC[C@]4(C)C3CC[C@@]21C (stereo partly shown)
Chick embryo diss. assay, Minimum Effective Concentration [1]: > 1 µg

CC(C)CCC[C@@H](C)[C@H]1CC[C@H]2[C@@H]3[C@H](O)C[C@H]4C[C@H](N)CC[C@]4(C)[C@H]3CC[C@]12C [Compound 1363]
pharmacologic similarity in tadpole assay [2]: pharmacologic activity similar to Fraction 1
